Measurements from patent US20250136610A1, “CRYSTALLINE FORMS OF TRILACICLIB AND TRILACICLIB SALTS” (TEVA PHARMACEUTICALS INTERNATIONAL GMBH, priority 2022, published 2025).
Where a name gives a salt, the structure may show the parent alone.

Legend:
Type in all cases: physicochemical
[1] = Grinding experiments (strong grinding and solvent drop grinding, XRPD); settings: 2 minutes
Description: (§1) X-ray diffraction was performed on X-Ray powder diffractometer: Bruker D8 Advance; CuKα radiation (λ=1.5418 Å); Lynx eye detector; laboratory temperature 22-25° C.; PMMA specimen holder ring with silicon low background. Prior to analysis, the samples were gently ground by means of mortar and pestle in order to obtain a fine powder. The ground sample was adjusted into a cavity of the sample holder and the surface of the sample was smoothed by means of a cover glass.
(§2) • Scan range: 2-40 degrees 2-theta; • Scan mode: continuous; • Step size: 0.05 degrees; • Time per step: 0.5 s; • Sample spin: 30 rpm; • Sample holder: PMMA specimen holder ring with silicon low background. • All X-Ray Powder Diffraction peak values are calibrated with regard to standard silicon spiking in the sample. ssNMR Method:
Samples of Trilaciclib citrate Form TCT3 were subjected to strong grinding, and to solvent drop grinding in isopropanol, ethanol and water. Grinding was carried out on the samples alone, or in the presence of ethanol or water. In these experiments, about 20 mg of the sample is placed in a mortar and ground with a pestle for 2 minutes. The solvent, when used, as added to the crystalline material before grinding, in a volume of 10 microliters.

[2] = Thermal stability (heating up to 100° C., XRPD); settings: heating 100° C., 30 minutes
Description: as §1, §2
A sample of Trilaciclib citrate Form TCT3 was subjected to heating up to 100° C. for 30 minutes.

[3] = Stability under all tested stress conditions (summary statement); settings: strong grinding, pressure of 2 tons, up to 100% RH for 7 days, up to 100° C.
[4] = Storage stability at different relative humidities and temperatures, months (XRPD)
Description: as §1, §2
Samples of Trilaciclib citrate Form TCT3 were subjected to conditions of different relative humidities at different temperatures. XRPD analysis was performed on the samples after 2 months.
Form TCT3 of Trilaciclib citrate was also found to be stable for at least 2 months at 2-8° C. Moreover, Form TCT3 is stable for at least 3 months at room temperature and humidity.

Compound: CN1CCN(c2ccc(Nc3ncc4cc5n(c4n3)C3(CCCCC3)CNC5=O)nc2)CC1 [Trilaciclib citrate Form TCT3, Trilaciclib citrate salt]
- XRPD analysis results ([1]; solvent-drop grinding (ethanol), 10 microliters): No polymorphic conversion
- XRPD analysis results ([1]; solvent-drop grinding (isopropanol), 10 microliters): No polymorphic conversion
- XRPD analysis results ([1]; solvent-drop grinding (water), 10 microliters): No polymorphic conversion
- XRPD analysis results ([1]; strong grinding, no solvent): No polymorphic conversion
- Result (XRPD analysis) [2]: No polymorphic conversion
- stability under stress conditions [3]: stable under all tested stress conditions
- time for which the form is stable ([4]; at 2-8° C.): at least 2 months
- time for which the form is stable ([4]; at room temperature and humidity): at least 3 months
